Laboratory results from ChEMBL document CHEMBL1159282, “Secondary Mold Metabolites, Part 49. Isolation, Structural Elucidation, and Biomimetic Synthesis of Trametol, a New 1-Arylpropane-1,2-diol Produced by the Fungus Trametes sp” (J Nat Prod, 1995).
Calls of active or inactive are those of the source.

Assays:
Type in all cases: functional, organism-based
Bacillus cereus = test: Antimicrobial activity against Bacillus cereus at 150 ug/disk
Escherichia coli = test: Antimicrobial activity against Escherichia coli at 150 ug/disk
Bacillus subtilis = test: Antimicrobial activity against Bacillus subtilis at 150 ug/disk
[1] = tested on: Cladosporium cladosporioides; test: Antimicrobial activity against Cladosporium cladosporioides at 150 ug/disk
Saccharomyces cerevisiae = test: Antimicrobial activity against Saccharomyces cerevisiae at 150 ug/disk

Measured: Activity

COc1ccc([C@@H](O)[C@H](C)O)cc1Cl
inactive: all assays above
